Experiments:
5-HT2A receptor = 5-HT2A receptor (Homo sapiens, UniProt P28223); experiment: 5-HT2A receptor binding affinity; conditions: for Ki: 5-HT2A receptor binding affinity; for 5-HT2A receptor binding affinity compared with sarpogrelate and ketanserin: comparison of Ki values, Table 8
Text: The 5-HT2A Receptor Binding Affinity of Compounds 116, 157 and 167.
The 5-HT2A receptor binding affinity data are represented by Ki values.

LPS induced endotoxaemia = experiment: Post-treatment of multiple doses on LPS induced endotoxaemia in mice model (survival); type: in vivo; conditions: for survival curve versus vehicle control group: Log rank test, p<0.01
Experimental: 12 hours after intraperitoneal injection of lipopolysaccharide (LPS) 100 mg/kg, compound 116 100 μg/kg or 300 μg/kg were administrated intraperitoneally or subcutaneously every 6 hour till 48 hours after LPS insults. […] Survival curves were compared by the Log rank test, and 3 days survival rate was compared by the chi square test.

[1] = test system: 5-HT induced amplification of platelet aggregation; experiment: Collagen-elicited aggregation of rat platelet rich plasma, amplified by serotonin (Lumi-aggregometer); type: cell-based, Spraque-Dawley rats; conditions: rat PRP; for amplifying effects of serotonin on collagen induced platelet aggregation: collagen 3 μg/mL
Experimental: Blood samples were collected from male adult Spraque-Dawley rats, and platelet rich plasma (PRP) and platelet poor plasma (PPP) were obtained by centrifugation. Aggregation was elicited by adding collagen 3 μg/mL in PRP, and the aggregation response was recorded as the change of light transmission of PRP with Lumi-aggregometer. In FIG. 9a, collagen induced platelet aggregation, and the aggregation response was amplified by adding 10 μM serotonin in 30 seconds before adding collagen, as shown in FIG. 9b.

[2] = test system: rat de-endothelial thoracic descending aorta; experiment: Serotonin induced rat thoracic aorta contraction (organ bath); parameters: species or system Sprague Dawley rats; conditions: 0.03 or 0.1 μM in organ bath; cumulative serotonin 30 nM-0.1 mM; FIG. 10
Experimental: Thoracic aortae were obtained from adult male Sprague Dawley rats. The aortae were cleared of adhering periadventitial fat and cut into strips 3-4 mm in length. […] The tissue was incubated with warmed (37° C.), oxygenated (95% O2/5% CO2) Krebs-Henseleit solution (KBS, pH7.4) consisting of NaCl 118.2 mM, KCl 4.7 mM, KH2PO4 1.2 mM, MgSO4 1.2 mM, CaCl2·2H2O 1.9 mM, NaHCO3 25 mM and glucose 11.7 mM. Indomethacin (10 μM) was added to prevent the production of prostanoids. One end of the segment was fixed to the organ bath chamber, and the other to a force transducer (Type BG 25; Gould, Oxnard, Calif., USA) in which tension is recorded (model RS 3400 recorder, Gould). The preparations were allowed to equilibrate for at least 60 min under a passive tension of 1.5±0.2 g. Cumulative responses to serotonin (30 nM-0.1 mM) were examined for 20 min after addition of 0.03 or 0.1 μM compound 116 to the organ bath. Contraction responses were expressed as the percentage of maximum contraction.

5-HT2A receptor, sequence (P28223 whole entry): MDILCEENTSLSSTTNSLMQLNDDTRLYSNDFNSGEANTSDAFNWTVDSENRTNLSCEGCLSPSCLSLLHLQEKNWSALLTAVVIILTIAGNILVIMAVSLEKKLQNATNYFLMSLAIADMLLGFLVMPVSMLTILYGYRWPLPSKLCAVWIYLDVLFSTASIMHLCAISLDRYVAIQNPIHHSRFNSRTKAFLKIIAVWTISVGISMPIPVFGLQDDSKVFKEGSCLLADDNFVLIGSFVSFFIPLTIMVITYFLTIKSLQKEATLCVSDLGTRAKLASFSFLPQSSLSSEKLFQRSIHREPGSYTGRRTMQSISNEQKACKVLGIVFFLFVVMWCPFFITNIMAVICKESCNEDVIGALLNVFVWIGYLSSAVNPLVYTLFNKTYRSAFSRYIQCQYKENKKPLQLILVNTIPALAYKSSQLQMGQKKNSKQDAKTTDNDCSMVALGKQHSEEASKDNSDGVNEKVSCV

| Compound | Ki (5-HT2A receptor) [nM] | 5-HT2A receptor binding affinity compared with sarpogrelate and ketanserin (5-HT2A receptor) | other results |
| --- | --- | --- | --- |
| COc1cccc(CCc2ccccc2OCC(CN(C)C)OC(=O)CCC(=O)O)c1 (centres unmarked) [sarpogrelate, reference compound] | 8.39 | – | – |
| COc1cc2c(c(-c3ccccc3F)c1OC)CN(CCc1ccccc1Cl)CC2 [Compound 167] | 0.119 | higher than those of the well-known 5-HT2A receptor antagonists | effect of post-treatment of multiple doses on LPS induced endotoxaemia (LPS induced endotoxaemia; same method as for compound 116, FIG. 8): Protective Effects |
| O=C(c1ccc(F)cc1)C1CCN(CCn2c(=O)[nH]c3ccccc3c2=O)CC1 [ketanserin, reference compound] | – | – | amplifying effects of serotonin on collagen induced platelet aggregation ([1]; 10 μM added 30 seconds before 10 μM serotonin): blocked |
| COc1cc2c(c(-c3ccccc3F)c1OC)CN(CCc1ccccc1)CC2 [Compound 157] | 2.21 | higher than those of the well-known 5-HT2A receptor antagonists | – |
| COc1ccc(-c2c(O)c(OC)cc3c2CN(CCc2ccccc2F)CC3)c(OC)c1 [Compound 116] | 3.47 | higher than those of the well-known 5-HT2A receptor antagonists | serotonin induced smooth muscle contraction [2]: inhibits serotonin induced smooth muscle contraction in a dose dependent manner; amplifying effects of serotonin on collagen induced platelet aggregation ([1]; 3 μg/mL added 30 seconds before 10 μM serotonin): blocked; platelet activation ([1]; FIGS. 9a-9d): Did not Exert Platelet Activation; survival curve versus vehicle control group (LPS induced endotoxaemia; 100 μg/kg i.p. or s.c. every 6 hour from 12 h till 48 hours after LPS 100 mg/kg i.p.): shifted the survive curve rightward significantly; survival curve versus vehicle control group (LPS induced endotoxaemia; 300 μg/kg i.p. or s.c. every 6 hour from 12 h till 48 hours after LPS 100 mg/kg i.p.): shifted the survive curve rightward significantly |

Source: US8552028B2, “8-phenylisoquinolines and pharmaceutical composition used in treatment for sepsis” (National Taiwan University, priority 2011, dated 2013)
